Target: human PAD4 (hPAD4) (Homo sapiens (Human), UniProt Q9UM07)
Assay: RFMS Human PAD4 Functional Assay 1
Assay type: biochemical
Details: RFMS assay 1; 5 nM hPAD4, 250 μM BAEE substrate, 50 μM calcium, 37° C.
How it was run: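 Recombinant hPAD4 (5 nM) was preincubated with compound (top 50 μM, 0.5% DMSO) for 30 min at 37 °C, then reacted with 250 μM BAEE for 90 min at 37 °C in pH 7.5 HEPES buffer with 50 μM calcium and 5 μM TPEN. Product was derivatized with phenyl glyoxal and quantified by RapidFire MS.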

Sequence of human PAD4 (hPAD4) (Q9UM07 whole entry): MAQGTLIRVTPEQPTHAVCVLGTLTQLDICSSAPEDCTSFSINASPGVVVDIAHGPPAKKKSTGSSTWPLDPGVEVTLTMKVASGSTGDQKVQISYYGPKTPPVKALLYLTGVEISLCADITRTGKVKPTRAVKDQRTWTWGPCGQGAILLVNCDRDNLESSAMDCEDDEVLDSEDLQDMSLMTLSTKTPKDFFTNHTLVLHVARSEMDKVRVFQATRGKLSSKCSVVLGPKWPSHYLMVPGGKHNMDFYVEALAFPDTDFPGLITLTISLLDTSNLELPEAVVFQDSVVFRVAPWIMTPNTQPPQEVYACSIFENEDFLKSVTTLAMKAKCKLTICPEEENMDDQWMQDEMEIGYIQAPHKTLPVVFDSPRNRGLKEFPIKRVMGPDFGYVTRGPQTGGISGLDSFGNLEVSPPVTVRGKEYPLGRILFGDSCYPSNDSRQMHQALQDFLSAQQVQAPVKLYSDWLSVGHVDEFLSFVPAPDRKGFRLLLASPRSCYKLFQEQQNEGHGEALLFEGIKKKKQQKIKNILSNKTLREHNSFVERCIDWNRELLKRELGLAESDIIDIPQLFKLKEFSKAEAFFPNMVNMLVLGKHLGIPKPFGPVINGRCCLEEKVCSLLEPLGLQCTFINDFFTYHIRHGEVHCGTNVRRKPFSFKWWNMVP

Row | Compound | IC50
1 | COc1cc(C(=O)N2CCC[C@@H](N)C2)cn2nc(-c3cc4ccc(N5CCC(OC)CC5)cc4n3CC3CC3)c(C)c12 [Example 249, (3R)-1-{2-[1-(Cyclopropylmethyl)-6-(4-methoxypiperidin-1-yl)-1H-indol-2-yl]-4-methoxy-3-methylpyrazolo[1,5-a]pyridine-6-carbonyl}piperidin-3-amine] | 80 nM
2 | COc1cc(C(=O)N2CCC[C@@H](N)C2)cn2nc(-c3cc4ccc(N5CCC(CC(=O)N(C)C)CC5)cc4n3CC3CC3)c(C)c12 [Example 250, 2-[1-(2-{6-[(3R)-3-Aminopiperidine-1-carbonyl]-4-methoxy-3-methylpyrazolo[1,5-a]pyridin-2-yl}-1-(cyclopropylmethyl)-1H-indol-6-yl)piperidin-4-yl]-N,N-dimethylacetamide] | 90 nM
3 | COc1cc(C(=O)N2CCC[C@@H](N)C2)cn2nc(-c3cc4ccc(N5CCC(C(=O)N6CC(OC)C6)CC5)cc4n3CC3CC3)c(C)c12 [Example 251, (3R)-1-{2-[1-(Cyclopropylmethyl)-6-[4-(3-methoxyazetidine-1-carbonyl)piperidin-1-yl]-1H-indol-2-yl]-4-methoxy-3-methylpyrazolo[1,5-a]pyridine-6-carbonyl}piperidin-3-amine] | 180 nM
4 | COc1cc(C(=O)N2CCC[C@@H](N)C2)cn2nc(-c3cc4ccc(N5CCC(N(C)C(C)=O)CC5)cc4n3CC3CC3)c(C)c12 [Example 252, N-[1-(2-{6-[(3R)-3-Aminopiperidine-1-carbonyl]-4-methoxy-3-methylpyrazolo[1,5-a]pyridin-2-yl}-1-(cyclopropylmethyl)-1H-indol-6-yl)piperidin-4-yl]-N-methylacetamide] | 790 nM
5 | COc1cc(C(=O)N2CCC[C@@H](N)C2)cn2nc(-c3cc4ccc(N5CCC(N(C)C(C)=O)CC5)cc4n3CC3CC3)c(C)c12 [Example 253, N-[1-(2-{6-[(3R)-3-Aminopiperidine-1-carbonyl]-4-methoxy-3-methylpyrazolo[1,5-a]pyridin-2-yl}-1-(cyclopropylmethyl)-1H-indol-6-yl)piperidin-4-yl]-N-methylacetamide] | 290 nM
6 | COc1cc(C(=O)N2CCC[C@@H](N)C2)cn2nc(-c3cc4ccc(N5CCC(N(C)S(C)(=O)=O)CC5)cc4n3CC3CC3)c(C)c12 [Example 254, N-[1-(2-{6-[(3R)-3-Aminopiperidine-1-carbonyl]-4-methoxy-3-methylpyrazolo[1,5-a]pyridin-2-yl}-1-(cyclopropylmethyl)-1H-indol-6-yl)piperidin-4-yl]-N-methylmethanesulfonamide] | 320 nM
7 | COC(=O)N(C)C1CCN(c2ccc3cc(-c4nn5cc(C(=O)N6CCC[C@@H](N)C6)cc(OC)c5c4C)n(CC4CC4)c3c2)CC1 [Example 255, Methyl N-[1-(2-{6-[(3R)-3-aminopiperidine-1-carbonyl]-4-methoxy-3-methylpyrazolo[1,5-a]pyridin-2-yl}-1-(cyclopropylmethyl)-1H-indol-6-yl)piperidin-4-yl]-N-methylcarbamate] | 250 nM
8 | COc1cc(C(=O)N2CCC[C@@H](N)C2)cn2nc(-c3cc4ccc(N5CC(N(C)S(C)(=O)=O)C5)cc4n3CC3CC3)c(C)c12 [Example 256, N-[1-(2-{6-[(3R)-3-Aminopiperidine-1-carbonyl]-4-methoxy-3-methylpyrazolo[1,5-a]pyridin-2-yl}-1-(cyclopropylmethyl)-1H-indol-6-yl)azetidin-3-yl]-N-methylmethanesulfonamide] | 330 nM
9 | Cc1c(-c2cc3ccc(-c4ccccc4N4CCNC4=O)nc3n2CC2CC2)nn2cc(C(=O)N3CC4CCC3[C@@H]4N)cc(F)c12 (stereo partly drawn) [Example 257, 1-[2-(2-{6-[(7R)-7-Amino-2-azabicyclo[2.2.1]heptane-2-carbonyl]-4-fluoro-3-methylpyrazolo[1,5-a]pyridin-2-yl}-1-(cyclopropylmethyl)-1H-pyrrolo[2,3-b]pyridin-6-yl)phenyl]imidazolidin-2-one] | 60 nM
10 | Cc1c(-c2cc3ccc(-c4ccc(N5CCCC5=O)cc4)nc3n2CC2CC2)nn2cc(C(=O)N3CC4CCC3[C@@H]4N)cc(F)c12 (stereo partly drawn) [Example 258, 1-[4-(2-{6-[(7R)-7-Amino-2-azabicyclo[2.2.1]heptane-2-carbonyl]-4-fluoro-3-methylpyrazolo[1,5-a]pyridin-2-yl}-1-(cyclopropylmethyl)-1H-pyrrolo[2,3-b]pyridin-6-yl)phenyl]pyrrolidin-2-one] | 220 nM
11 | Cc1c(O)cccc1-c1ccc2cc(-c3nn4cc(C(=O)N5CC6CCC5[C@@H]6N)cc(F)c4c3C)n(CC3CC3)c2n1 (stereo partly drawn) [Example 259, 3-(2-{6-[(7R)-7-Amino-2-azabicyclo[2.2.1]heptane-2-carbonyl]-4-fluoro-3-methylpyrazolo[1,5-a]pyridin-2-yl}-1-(cyclopropylmethyl)-1H-pyrrolo[2,3-b]pyridin-6-yl)-2-methylphenol] | 20 nM
12 | Cc1cc(C(N)=O)c(F)cc1-c1ccc2cc(-c3nn4cc(C(=O)N5CC6CCC5[C@@H]6N)cc(F)c4c3C)n(CC3CC3)c2n1 (stereo partly drawn) [Example 260, 4-(2-{6-[(7R)-7-Amino-2-azabicyclo[2.2.1]heptane-2-carbonyl]-4-fluoro-3-methylpyrazolo[1,5-a]pyridin-2-yl}-1-(cyclopropylmethyl)-1H-pyrrolo[2,3-b]pyridin-6-yl)-2-fluoro-5-methylbenzamide] | 220 nM
13 | Cc1c(-c2cc3ccc(-c4ccc(N5CCNC5=O)cc4)nc3n2CC2CC2)nn2cc(C(=O)N3CC4CCC3[C@@H]4N)cc(F)c12 (stereo partly drawn) [Example 261, 1-[4-(2-{6-[(7R)-7-Amino-2-azabicyclo[2.2.1]heptane-2-carbonyl]-4-fluoro-3-methylpyrazolo[1,5-a]pyridin-2-yl}-1-(cyclopropylmethyl)-1H-pyrrolo[2,3-b]pyridin-6-yl)phenyl]imidazolidin-2-one] | 420 nM
14 | Cc1cc(-c2ccc3cc(-c4nn5cc(C(=O)N6CC7CCC6[C@@H]7N)cc(F)c5c4C)n(CC4CC4)c3n2)ccc1C(N)=O (stereo partly drawn) [Example 262, 4-(2-{6-[(7R)-7-Amino-2-azabicyclo[2.2.1]heptane-2-carbonyl]-4-fluoro-3-methylpyrazolo[1,5-a]pyridin-2-yl}-1-(cyclopropylmethyl)-1H-pyrrolo[2,3-b]pyridin-6-yl)-2-methylbenzamide] | 120 nM
15 | Cc1c(-c2cc3ccc(-c4ccc(C(N)=O)cc4)nc3n2CC2CC2)nn2cc(C(=O)N3CC4CCC3[C@@H]4N)cc(F)c12 (stereo partly drawn) [Example 263, 4-(2-{6-[(7R)-7-Amino-2-azabicyclo[2.2.1]heptane-2-carbonyl]-4-fluoro-3-methylpyrazolo[1,5-a]pyridin-2-yl}-1-(cyclopropylmethyl)-1H-pyrrolo[2,3-b]pyridin-6-yl)benzamide] | 90 nM
16 | CNC(=O)c1ccc(-c2ccc3cc(-c4nn5cc(C(=O)N6CC7CCC6[C@@H]7N)cc(F)c5c4C)n(CC4CC4)c3n2)cn1 (stereo partly drawn) [Example 264, 5-(2-{6-[(7R)-7-Amino-2-azabicyclo[2.2.1]heptane-2-carbonyl]-4-fluoro-3-methylpyrazolo[1,5-a]pyridin-2-yl}-1-(cyclopropylmethyl)-1H-pyrrolo[2,3-b]pyridin-6-yl)-N-methylpyridine-2-carboxamide] | 10 nM
17 | Cc1c(-c2cc3ccc(N4CCC[C@@H](O)C4)nc3n2CC2CC2)nn2cc(C(=O)N3CC4CCC3[C@@H]4N)cc(F)c12 (stereo partly drawn) [Example 265, ((7R)-7-Amino-2-azabicyclo[2.2.1]heptan-2-yl)(2-(1-(cyclopropylmethyl)-6-((R)-3-hydroxypiperidin-1-yl)-1H-pyrrolo[2,3-b]pyridin-2-yl)-4-fluoro-3-methylpyrazolo[1,5-a]pyridin-6-yl)methanone] | 110 nM
18 | Cc1c(-c2cc3ccc(N4CCOCC4)nc3n2CC2CC2)nn2cc(C(=O)N3CC4CCC3[C@@H]4N)cc(F)c12 (stereo partly drawn) [Example 266, (7R)-2-{2-[1-(Cyclopropylmethyl)-6-(morpholin-4-yl)-1H-pyrrolo[2,3-b]pyridin-2-yl]-4-fluoro-3-methylpyrazolo[1,5-a]pyridine-6-carbonyl}-2-azabicyclo[2.2.1]heptan-7-amine] | 280 nM
19 | Cc1c(-c2cc3ccc(N4CCOCC4=O)nc3n2CC2CC2)nn2cc(C(=O)N3CC4CCC3[C@@H]4N)cc(F)c12 (stereo partly drawn) [Example 267, 4-(2-{6-[(7R)-7-Amino-2-azabicyclo[2.2.1]heptane-2-carbonyl]-4-fluoro-3-methylpyrazolo[1,5-a]pyridin-2-yl}-1-(cyclopropylmethyl)-1H-pyrrolo[2,3-b]pyridin-6-yl)morpholin-3-one] | 50 nM
20 | Cc1c(-c2cc3ccc(N4CCC(S(C)(=O)=O)CC4)nc3n2CC2CC2)nn2cc(C(=O)N3CC4CCC3[C@@H]4N)cc(F)c12 (stereo partly drawn) [Example 268, (7R)-2-{2-[1-(Cyclopropylmethyl)-6-(4-methanesulfonylpiperidin-1-yl)-1H-pyrrolo[2,3-b]pyridin-2-yl]-4-fluoro-3-methylpyrazolo[1,5-a]pyridine-6-carbonyl}-2-azabicyclo[2.2.1]heptan-7-amine] | 40 nM
21 | Cc1c(-c2cc3ccc(N4CCC5(CC4)CN(C)C(=O)O5)nc3n2CC2CC2)nn2cc(C(=O)N3CCC[C@@H](N)C3)cc(F)c12 [Example 269, 8-(2-{6-[(3R)-3-Aminopiperidine-1-carbonyl]-4-fluoro-3-methylpyrazolo[1,5-a]pyridin-2-yl}-1-(cyclopropylmethyl)-1H-pyrrolo[2,3-b]pyridin-6-yl)-3-methyl-1-oxa-3,8-diazaspiro[4.5]decan-2-one] | 540 nM
22 | Cc1c(-c2cc3ccc(N4CCC(S(C)(=O)=O)CC4)nc3n2CC2CC2)nn2cc(C(=O)N3CCC[C@@H](N)C3)cc(F)c12 [Example 270, (3R)-1-{2-[1-(Cyclopropylmethyl)-6-(4-methanesulfonylpiperidin-1-yl)-1H-pyrrolo[2,3-b]pyridin-2-yl]-4-fluoro-3-methylpyrazolo[1,5-a]pyridine-6-carbonyl}piperidin-3-amine] | 2110 nM

Reference: US12473304B2, “Heterocyclic PAD4 inhibitors” (BRISTOL-MYERS SQUIBB COMPANY, priority 2020, dated 2025)
